One assay has as its target T1, S1P3 (Homo sapiens, UniProt Q99500).
T1 construct: host or cells: HEK293 (transient transfection)
Kind of assay: S1P3 Tango β-arrestin recruitment assay in HEK293 cells (Assay 5). The format is cell-based. The source says: (§1) For the Tango™ β-arrestin recruitment assay, the cytoplasmic C-terminus of S1P1 was tethered to the tTA transcriptional activator with a linker that contains a cleavage site for the N1a protease from tobacco etch virus (TEV protease). The C-terminus of the human β-arrestin2 protein was fused to TEV protease. Binding of an agonist recruits the βl -arrestin-TEV fusion protein to the receptor resulting in cleavage of the linker and released of tTA to enter the nucleus and subsequently activated a tTA-dependent luciferase reporter gene.
Assay 2a: Frozen HEK293 cells transiently transfected with receptor cDNAs for S1P1 (Invitrogen) are thawed and suspended in 10 mL of Pro293a-CDM culture medium (Invitrogen) supplemented with 4 mM L-Glutamine (Invitrogen), 1× Pen/Strep (100 units/mL penicillin and 100 μg/mL streptomycin, Invitrogen) and 0.1% fatty acid free BSA (Sigma-Aldrich). Cells are added to the wells of a 384-well white opaque bottom assay plate (PerkinElmer) at 3,000-6,000 cells per well and the plate is incubated for approximately 4 h in a 37° C. incubator. Test compounds are tested at maximum concentrations of 10 μM for the agonist assays. Compounds are diluted in DMSO (10 concentration points, 3-fold each) and added to the assay plate at a 1% final DMSO concentration. For each compound, there are duplicate assay plates and each assay plate has duplicate wells per concentration point. The plate is incubated at 37° C. for 30 min. The efficacy control is 5 μM S1P (Avanti). Following agonist addition, the assay plates are incubated in a 37° C. incubator for 16-18 h. Luciferase assay reagent is added and luminescence measured in an EnVision plate reader (PerkinElmer). To determine agonist activity, percent activity is calculated as [(test compound−background)/(positive control−background)*100], where background is the luminescence of the DMSO alone control and the positive control is the luminescence from cells incubated with the efficacy control 5 μM S1P. The percent activities are plotted against compound concentration to determine EC50 using XLFit (IDBS).
This assay was conducted using the procedures described in Assay 2a, replacing S1P1 with S1P3.
On the technique in general: Activated receptors often draw arrestin, which recruitment assays turn into a signal.

Assay [1] deals with T2, hS1P1R (hEdg1) membrane protein (Homo sapiens, UniProt P21453).
T2 construct: purchased Lonza
Kind of assay: hS1P1R GTPγS binding assay (Assay 3a). Type of assay: biochemical. As to the method: Assay 3a: The hS1P1R GTPγS binding assay was carried out at room temperature in 96 well non-binding surface assay plates. The reaction in each well contained 4 μg hS1P1R (hEdg1) membrane protein (Lonza), 30 μM GDP, 0.1 nM [^35S]GTPγS, 0.25% fatty acid free BSA, and serially diluted hS1P1R agonist compound in 200 μL assay buffer (25 mM Tris-HCl PH 7.9, 100 mM NaCl, 3 mM MgCl2, and 0.2 mM EGTA). After one hour of incubation, 0.9 mg of WGA (Wheat Germ Agglutinin) SPA beads in 50 μL of assay buffer was added to each well. The SPA beads were spun down after an additional one hour incubation. The radioactivity of the bound GTPγS was counted by reading the assay plate using a MicroBeta.
(GTPγS resists hydrolysis and so accumulates on activated G proteins.)

The target of assay [2] is T3, hS1PR5 (hEdg8) membrane protein (Homo sapiens, UniProt Q9H228).
T3 construct: expressed in transfected cells; host or cells: CHO
Kind of assay: hS1P5R GTPγS binding assay (Assay 4). Type of assay: biochemical. On the procedure: The hS1PR5 GTPγS binding assay was carried out at room temperature in 96-well non-binding surface assay plates. The reaction in each well contained 5 μg hS1PR5 (hEdg8) membrane protein from CHO cells expressing hS1PR5, 30 μM GDP, 0.1 nM [^35S]GTPγS, 0.25% fatty acid free BSA, and serially-diluted Compound of the Invention in 200 μL assay buffer (25 mM Tris-HCl PH 7.9, 100 mM NaCl, 3 mM MgCl2, and 0.2 mM EGTA). After one hour of incubation, 0.9 mg of WGA (Wheat Germ Agglutinin) SPA beads in 50 μL of assay buffer was added to each well. The SPA beads were spun down after an additional one hour incubation. The radioactivity of the bound GTPγS was counted by reading the assay plate using a MicroBeta.

In another assay the target is T4, S1P1 (Homo sapiens, UniProt P21453).
T4 construct: host or cells: U2OS
Briefly: Tango β-arrestin recruitment assay in U2OS cells (Assay 2b). The format is cell-based.
Source text: as §1
Assay 2b: Alternatively, U2OS cells expressing the reporter gene and S1P1 (Invitrogen) were added to the wells of a 384-well white opaque bottom assay plate (PerkinElmer) at […]. The cells were serum starved for 48 h in Freestyle medium (Invitrogen). Test compounds were tested at maximum concentrations of 1 μM for the agonist assay. Compounds were diluted in DMSO (10 concentration points, 3-fold each) and added to the assay plate at a 1% final DMSO concentration. The efficacy control was 1 μM S1P (Avanti). For each compound, there were duplicate assay plates and each assay plate had duplicate wells per concentration point. The plate was incubated overnight at 37° C. The GeneBLAzer β-lactamase assay reagent (Invitrogen) was added and the plates were incubated for an additional 2 h at room temperature. Fluorescence was measured using an EnVision plate reader (PerkinElmer, Waltham, Mass.) at an excitation wavelength of 409 nm and emission wavelengths of 460 nm and 530 nm. The emission intensity at each wavelength was background subtracted against wells containing medium only and the F460 nm/F530 nm ratio determined for each concentration of the test compounds. Percent activity was calculated as [(test compound ratio−DMSO ratio)/(positive control ratio−DMSO ratio)*100], where the positive control and DMSO ratios are from cells incubated with the efficacy control 1 μM S1P and 1% DMSO, respectively. The percent activities were plotted against compound concentration to determine EC50 using XLFit (IDBS).

[3] abbreviates: * = rEC50 measured rather than EC50, read-out: Assay 5 rEC50 (relative EC50, cells marked *).

The results in this text go back to patent US20100249071A1, “Modulators of S1P and Methods of Making And Using” (Exelixis, Inc., priority 2009, published 2010).

Like-named read-outs stand apart in the source and are kept apart here.

T3 sequence (Q9H228 whole entry): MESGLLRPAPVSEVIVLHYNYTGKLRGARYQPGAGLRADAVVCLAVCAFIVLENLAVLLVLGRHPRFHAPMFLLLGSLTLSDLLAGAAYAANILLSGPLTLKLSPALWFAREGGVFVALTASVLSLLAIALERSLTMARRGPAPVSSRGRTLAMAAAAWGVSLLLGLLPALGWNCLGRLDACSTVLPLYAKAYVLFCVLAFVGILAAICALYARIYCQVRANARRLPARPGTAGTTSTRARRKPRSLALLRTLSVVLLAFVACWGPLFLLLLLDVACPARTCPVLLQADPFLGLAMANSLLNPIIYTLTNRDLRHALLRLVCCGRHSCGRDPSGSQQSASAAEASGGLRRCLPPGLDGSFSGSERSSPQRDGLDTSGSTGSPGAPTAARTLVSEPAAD
T4 sequence (P32121 whole entry): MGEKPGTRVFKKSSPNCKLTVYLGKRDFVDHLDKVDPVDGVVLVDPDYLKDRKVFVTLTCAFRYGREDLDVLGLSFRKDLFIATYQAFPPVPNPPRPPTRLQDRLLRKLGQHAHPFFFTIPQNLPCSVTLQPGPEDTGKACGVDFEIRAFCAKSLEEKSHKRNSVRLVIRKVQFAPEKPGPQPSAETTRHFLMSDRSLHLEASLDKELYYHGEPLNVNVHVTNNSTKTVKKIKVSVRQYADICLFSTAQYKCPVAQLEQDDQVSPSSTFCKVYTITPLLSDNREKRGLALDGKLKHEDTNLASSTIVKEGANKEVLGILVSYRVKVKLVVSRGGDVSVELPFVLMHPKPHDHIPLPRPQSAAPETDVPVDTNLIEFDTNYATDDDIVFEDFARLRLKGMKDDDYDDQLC
T4 sequence (P21453 whole entry): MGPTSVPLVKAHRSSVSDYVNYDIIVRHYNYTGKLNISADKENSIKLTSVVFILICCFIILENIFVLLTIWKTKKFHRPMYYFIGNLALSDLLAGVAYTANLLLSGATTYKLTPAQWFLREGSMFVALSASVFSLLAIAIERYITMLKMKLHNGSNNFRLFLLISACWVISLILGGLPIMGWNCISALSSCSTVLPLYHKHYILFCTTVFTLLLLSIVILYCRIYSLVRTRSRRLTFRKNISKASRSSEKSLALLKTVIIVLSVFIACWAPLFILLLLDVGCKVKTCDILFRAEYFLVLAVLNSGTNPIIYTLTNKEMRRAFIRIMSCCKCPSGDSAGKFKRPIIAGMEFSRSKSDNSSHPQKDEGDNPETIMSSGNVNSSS
T1 sequence (P32121 whole entry): as the sequence (P32121 whole entry) above
T1 sequence (Q99500 whole entry): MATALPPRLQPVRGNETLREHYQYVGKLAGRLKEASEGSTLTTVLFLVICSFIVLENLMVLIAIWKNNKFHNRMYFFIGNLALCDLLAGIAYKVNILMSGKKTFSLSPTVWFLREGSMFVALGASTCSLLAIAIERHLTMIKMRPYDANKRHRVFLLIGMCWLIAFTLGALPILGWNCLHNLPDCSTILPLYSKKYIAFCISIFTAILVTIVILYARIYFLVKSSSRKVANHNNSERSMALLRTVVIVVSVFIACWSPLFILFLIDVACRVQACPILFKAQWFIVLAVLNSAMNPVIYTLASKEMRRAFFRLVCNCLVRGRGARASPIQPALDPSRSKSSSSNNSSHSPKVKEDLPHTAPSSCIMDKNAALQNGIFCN
T2 sequence (P21453 whole entry): as the sequence (P21453 whole entry) above

With `CC(C)Nc1ccc(-c2nnc(-c3cc(F)c(OC[C@@H](N)[C@H](C)O)cc3Cl)s2)cn1` [Entry 59, (2S,3R)-3-amino-4-{[5-chloro-2-fluoro-4-(5-{6-[(1-methylethyl)amino]pyridin-3-yl}-1,3,4-thiadiazol-2-yl)phenyl]oxy}butan-2-ol], the concentration for a half-maximal effect (EC50) (in general, the concentration at which the effect is half-maximal) on S1P3 (read-out: Assay 5 EC50) was over 10000 nM; in assay [1], 250 to 2800 nM; in assay [2], 250 to 2800 nM; at S1P1 (read-out: Assay 2b EC50), at most 10 nM.
On to `CC(C)Nc1ccc(-c2nnc(-c3cc(F)c(OC[C@@H](N)COP(=O)(O)O)cc3Cl)s2)cn1` [Entry 47, (2R)-2-amino-3-{[5-chloro-2-fluoro-4-(5-{6-[(1-methylethyl)amino]pyridin-3-yl}-1,3,4-thiadiazol-2-yl)phenyl]oxy}propyl dihydrogen phosphate], for which the EC50 is at most 250 nM at S1P3 (read-out: Assay 5 EC50), at most 10 nM in assay [1], at most 10 nM in assay [2] and at most 10 nM on S1P1 (read-out: Assay 2b EC50).
For the compound `CC(C)Oc1ccc(-c2nnc(-c3cc(F)c(OC[C@@H](N)CO)cc3Cl)s2)cn1` [Entry 38, (2S)-2-amino-3-{[5-chloro-2-fluoro-4-(5-{6-[(1-methylethyl)oxy]pyridin-3-yl}-1,3,4-thiadiazol-2-yl)phenyl]oxy}propan-1-ol], the EC50 on S1P3 (read-out: Assay 5 EC50) is at most 250 nM; in assay [1] it was 10 to 50 nM; in assay [2] it was 250 to 2800 nM; on S1P1 (read-out: Assay 2b EC50), at most 10 nM.
The corresponding values for `CC(C)Nc1ccc(-c2nnc(-c3cc(F)c(OC[C@H](N)[C@H](C)O)cc3Cl)s2)cn1` [Entry 56, (2S,3S)-3-amino-4-{[5-chloro-2-fluoro-4-(5-{6-[(1-methylethyl)amino]pyridin-3-yl}-1,3,4-thiadiazol-2-yl)phenyl]oxy}butan-2-ol] are over 10000 nM, 250 to 2800 nM, over 10000 nM and 250 to 2800 nM.
Taken in the same sequence, the figures for `CC(C)Oc1ccc(-c2nnc(-c3cc(F)c(OC[C@H](N)COP(=O)(O)O)cc3Cl)s2)cc1Cl` [Entry 13, (2S)-2-amino-3-{[5-chloro-4-(5-{3-chloro-4-[(1-methylethyl)oxy]phenyl}-1,3,4-thiadiazol-2-yl)-2-fluorophenyl]oxy}propyl dihydrogen phosphate] were at most 250 nM, at most 10 nM, at most 10 nM and at most 10 nM.
For the compound `CC(C)Nc1ccc(-c2nnc(-c3cc(F)c(OC[C@@H](N)CO)cc3Cl)s2)cc1Cl` [Entry 45, (2S)-2-amino-3-{[5-chloro-4-(5-{3-chloro-4-[(1-methylethyl)amino]phenyl}-1,3,4-thiadiazol-2-yl)-2-fluorophenyl]oxy}propan-1-ol], the EC50 is over 250 nM at S1P3 (setting [3]), at most 10 nM in assay [1], 10 to 50 nM in assay [2] and at most 10 nM at S1P1 (read-out: Assay 2b EC50).
“(1R,2S)-2-amino-3-{[5-chloro-2-fluoro- 4-(5-{3-methyl-4-[(1- methylethyl)oxy]phenyl}-1,3,4- thiadiazol-2-yl)phenyl]oxy}-1- methylpropyl dihydrogen phosphate [Entry 99]”: the EC50 at S1P3 (read-out: Assay 5 EC50) is at most 250 nM; in assay [1] it was at most 10 nM; in assay [2] it was 10 to 50 nM; on S1P1 (read-out: Assay 2b EC50), at most 10 nM.
Turning to `Cc1cc(-c2nnc(-c3cc(F)c(OC[C@H](N)[C@H](C)O)cc3Cl)s2)cc(NC(C)C)n1` [Entry 63, (2S,3S)-3-amino-4-{[5-chloro-2-fluoro-4-(5-{2-methyl-6-[(1-methylethyl)amino]pyridin-4-yl}-1,3,4-thiadiazol-2-yl)phenyl]oxy}butan-2-ol], the concentration for a half-maximal effect (EC50) at S1P3 (read-out: Assay 5 EC50) is over 250 nM; in assay [1], at most 10 nM; in assay [2] it was 10 to 50 nM; at S1P1 (read-out: Assay 2b EC50) it was 10 to 50 nM.
For `CCOc1ccc(-c2nnc(-c3cc(F)c(OC[C@H](N)CO)cc3Cl)s2)cc1C#N` [Entry 76, 5-[5-(4-{[(2R)-2-amino-3-hydroxyporpyl]oxy}-2-chloro-5-fluorophenyl)-1,3,4-thiadiazol-2-yl]-2-(ethyloxy)benzonitrile], the EC50 at S1P3 (read-out: Assay 5 EC50) is over 10000 nM; in assay [1], at most 10 nM; in assay [2], 50 to 250 nM; on S1P1 (read-out: Assay 2b EC50), 10 to 50 nM.
Turning to `CC(C)Nc1ncc(-c2nnc(-c3cc(F)c(OC[C@@H](N)CO)cc3Cl)s2)cn1` [Entry 90, (2S)-2-amino-3-{[5-chloro-2-fluoro-4-(5-{2-[(1-methylethyl)amino]pyrimidin-5-yl}-1,3,4-thiadiazol-2-yl)phenyl]oxy}propan-1-ol], the EC50 at S1P3 (read-out: Assay 5 EC50) is at most 250 nM; in assay [1] it was 50 to 250 nM; in assay [2] it was 250 to 2800 nM; on S1P1 (* = rEC50 measured rather than EC50, read-out: Assay 2b rEC50 (relative EC50, cells marked *)), at most 10 nM.
For `CC(C)Oc1ccc(-c2nnc(-c3cc(F)c(OC[C@H](N)[C@H](C)OP(=O)(O)O)cc3Cl)s2)cc1Cl` [Entry 69, (1S,2S)-2-amino-3-{[5-chloro-4-(5-{3-chloro-4-[(1-methylethyl)oxy]phenyl}-1,3,4-thiadiazol-2-yl)-2-fluorophenyl]oxy}-1-methylpropyl dihydrogen phosphate], the EC50 is over 250 nM on S1P3 (setting [3]), at most 10 nM in assay [1], 10 to 50 nM in assay [2] and at most 10 nM at S1P1 (read-out: Assay 2b EC50).
For the compound `Cc1cc(-c2nnc(-c3cc(F)c(OC[C@@H](N)[C@H](C)O)cc3Cl)s2)cnc1NC(C)C` [Entry 96, (2S,3R)-3-amino-4-{[5-chloro-2-fluoro-4-(5-{5-methyl-6-[(1-methylethyl)amino]pyridin-3-yl}-1,3,4-thiadiazol-2-yl)phenyl]oxy}butan-2-ol], the EC50 is over 10000 nM on S1P3 (read-out: Assay 5 EC50), 250 to 2800 nM in assay [1], 2800 to 10000 nM in assay [2] and at most 10 nM on S1P1 (read-out: Assay 2b EC50).
`CC(C)Oc1ccc(-c2nnc(-c3cc(F)c(OC[C@@H](N)[C@H](C)OP(=O)(O)O)cc3Cl)s2)cc1Cl` [Entry 64, (1S,2R)-2-amino-3-{[5-chloro-4-(5-{3-chloro-4-[(1-methylethyl)oxy]phenyl}-1,3,4-thiadiazol-2-yl)-2-fluorophenyl]oxy}-1-methylpropyl dihydrogen phosphate]: the half-maximal effective concentration (EC50) on S1P3 (setting [3]) is at most 250 nM; in assay [1], at most 10 nM; in assay [2], at most 10 nM; at S1P1 (read-out: Assay 2b EC50) it was at most 10 nM.
